Where two headings read alike, the source gives them in different places.
Columns and labels:
NAFLD patients = assay: Phase IIa NAFLD study: OWL liver care diagnostic test; assay type: in vivo, human; conditions: for Change in Diagnosis (Week 16 vs. baseline): Improvement / Change in Diagnosis (Week 16 vs. baseline): Stable / Change in Diagnosis (Week 16 vs. baseline): Worsening: number of patients
From the text: OWL Liver Care is a test that was developed based on the plasma lipidomics in biopsy-confirmed NASH patients and provides high predictive values. OWL Liver Care has an area under the curve (AUC) of 0.88 for distinguishing NAFLD and normal liver patients and an AUC of 0.79 for distinguishing NAFLD without steatohepatitis and NASH patients.

rats = conditions: 28-day dose ranging study; cited from earlier work
UUO mice = assay type: in vivo
Procedure: UUO Surgery: On day 0 of the study, UUO surgery was performed on mice under pentobarbital sodium anesthesia. The mouse's hair was first shaved and then abdomen cut open to exteriorize the mouse's left ureter. The ureter was ligated 4-0 nylon sutures at two points. The mouse's peritoneum and skin were then closed with sutures, and the mouse transferred to a clean cage until recovered from the anesthesia. Sham operated mice had their left ureter exposed but not ligated. […]
Animals: Seven-week-old female C57BL/6 mice (i.e., animals) were obtained and were housed and fed with a normal diet under controlled conditions. The animals were maintained in a specific-pathogen free (SPF) facility under controlled conditions of temperature (e.g., 23±2° C.), humidity (e.g., 45±10%), lighting (e.g., 12-hour artificial light and dark cycles; light from 8:00 to 20:00) and air exchange. A high pressure was maintained in the experimental room to prevent contamination of the facility. The animals were housed in TPX cages with a maximum of 4 mice per cage. Sterilized Paper-Clean was used for bedding and replaced once a week. Sterilized solid normal diet was provided ad libitum, being placed in a metal lid on the top of the cage. Pure water was also provided ad libitum from a water bottle equipped with a rubber stopper and a sipper tube. Water bottles were replaced once a week, cleaned, and sterilized in an autoclave and reused. Mice were identified by ear punch and each cage was labeled with a specific identification code.
Animal Monitoring and Sacrifice: The viability, clinical signs and behavior for the mice were monitored daily. Individual body weight was measured daily before treatment during the treatment period. […] The animals were sacrificed by exsanguination through direct cardiac puncture under isoflurane anesthesia at Day 14.

[1] = 1 g DS102 arm, OWL baseline diagnosis NASH
[2] = 1 g DS102 arm, OWL baseline diagnosis No NAFLD
[3] = 1 g DS102 arm, OWL baseline diagnosis Steatosis
[4] = 2 g DS102 arm, OWL baseline diagnosis NASH
[5] = 2 g DS102 arm, OWL baseline diagnosis No NAFLD
[6] = 2 g DS102 arm, OWL baseline diagnosis Steatosis
[7] = 50 mg/kg PO QD Day 0-13, Day 14, mean ± SD
[8] = 500 mg/kg PO QD Day 0-13, Day 14, mean ± SD

Compound: CC/C=C\C[C@H](O)/C=C/C=C\C/C=C\C/C=C\CCCC(=O)OCC [DS102, 15(S)-hydroxy-(5Z,8Z,11Z,13E,17Z)-eicosapentaenoic acid ethyl ester]
- Change in Diagnosis (Week 16 vs. baseline): Improvement (NAFLD patients; [1]): 5
- Change in Diagnosis (Week 16 vs. baseline): Stable (NAFLD patients; [1]): 14
- Change in Diagnosis (Week 16 vs. baseline): Stable (NAFLD patients; [2]): 3
- Change in Diagnosis (Week 16 vs. baseline): Worsening (NAFLD patients; [2]): 1
- Change in Diagnosis (Week 16 vs. baseline): Stable (NAFLD patients; [3]): 2
- Change in Diagnosis (Week 16 vs. baseline): Worsening (NAFLD patients; [3]): 3
- Change in Diagnosis (Week 16 vs. baseline): Improvement (NAFLD patients; [4]): 5
- Change in Diagnosis (Week 16 vs. baseline): Stable (NAFLD patients; [4]): 7
- Change in Diagnosis (Week 16 vs. baseline): Stable (NAFLD patients; [5]): 2*, **
- Change in Diagnosis (Week 16 vs. baseline): Worsening (NAFLD patients; [5]): 1
- Change in Diagnosis (Week 16 vs. baseline): Improvement (NAFLD patients; [6]): 1
- Change in Diagnosis (Week 16 vs. baseline): Stable (NAFLD patients; [6]): 9
- Change in Diagnosis (Week 16 vs. baseline): Worsening (NAFLD patients; [6]): 4
- OWL liver care diagnosed NASH (NAFLD patients; NAFLD patients, dose dependent, vs placebo at Week 16): significantly improved and normalized
- oral maximum tolerated dose (MTD) (rats): 6 g/kg/day
- Body Weight (UUO mice; [7]): 18.8 ± 0.6 g
- Left Kidney Weight (UUO mice; [7]): 469 ± 60 mg
- Right Kidney Weight (UUO mice; [7]): 133 ± 10 mg
- Body Weight (UUO mice; [8]): 18.7 ± 0.5 g
- Left Kidney Weight (UUO mice; [8]): 487 ± 108 mg
- Right Kidney Weight (UUO mice; [8]): 136 ± 6 mg

From patent US20240299328A1, “COMPOSITIONS COMPRISING 15-HEPE AND METHODS OF TREATING AND/OR PREVENTING HEMATOLOGIC DISORDERS AND RELATED DISEASES” (Afimmune Limited, priority 2023, published 2024)
